From patent US9714232B2, “Substituted piperazine compounds and methods of use thereof” (Sunshine Lake Pharma Co., Ltd., priority 2013, dated 2017)

Columns and labels:
[1] = target: serotonin transporter in rat synaptosome (Rattus norvegicus (Rat), UniProt P31652); assay: Inhibitory effect on [3H]5-HT uptake in rat synaptosome; type: biochemical; conditions: rat brain synaptosomes, 0.1 μCi [3H]5-HT, 37° C., 15 minutes
Experimental: The synaptosomes (150 μg) prepared from a rat brain were incubated at 37° C. for 15 minutes with 0.1 μCi [^3H]5-HT in the absence or presence of the test compound or the reference compound in a buffer solution containing 106.2 mM NaCl, 4.5 mM KCl, 2.25 mM MgSO4, 1.08 mM NaH2PO4, 22.5 mM NaHCO3, 9.9 mM glucose, 9 μM EGTA and 45 μM ascorbic acid (pH 7.4).
The basal control activity was determined by incubating the same mixture at 4° C. for 15 minutes in the presence of 10 μM imipramine to block the uptake of 5-HT, which was taken as the standard reference compound and tested in each experiment at several concentrations to obtain an inhibition curve.
Following the incubation, the samples were filtered rapidly under vacuum through glass fiber filters (GF/B, Packard) and rinsed twice with an ice-cold incubation buffer using a 96-sample cell harvester (Unifilter, Packard) to eliminate free [^3H]5-HT. The filters were dried and the retained radioactivity was measured in a scintillation counter (Topcount, Packard) using a scintillation cocktail (Microscint 0, Packard). The experimental results were expressed as a percent inhibition of the control uptake of [^3H]5-HT.
Inhibition of serotonin transporter in rat synaptosome was measured by the concentrations of [^3H]5-HT.

human 5-HT1A receptor = human 5-HT1A receptor (Homo sapiens (Human), UniProt P08908); assay: Affinity for human 5-HT1A receptor ([3H]8-OH-DPAT binding, HEK-293 cell homogenates); conditions: 0.3 nM [3H]8-OH-DPAT, human HEK-293 cell homogenates, 22° C., 60 minutes; Ki from IC50 by ChengPrusoff equation
Experimental: Human HEK-293 cell homogenates (36 μg protein) were incubated at 22° C. for 60 minutes with 0.3 nM [^3H]8-0H-DPAT (Perkin-Elmer) in the absence or presence of the test compound in a buffer solution containing 50 mM Tris-HCl (pH 7.4), 10 mM MgSO4, 0.5 mM EDTA and 2 μg/ml aprotinine.
The non-specific binding value was determined by incubating the same mixture in the presence of 10 μM 8-OH-DPAT, which was used as the standard reference compound and tested in each experiment at several concentrations to obtain a competition curve.
Following the incubation, the samples were filtered rapidly under vacuum through glass fiber filter (GF/B, Packard) presoaked with 0.3% PEI and rinsed several times with ice-cold 50 mM Tris-HCl using a 96-sample cell harvester (Unifilter, Packard). The filters were dried and the retained radioactivity was measured in a scintillation counter (Topcount, Packard) using a scintillation cocktail (Microscint 0, Packard). The experimental results were expressed as a percent inhibition of the control radioligand specific binding.
Binding assay of [^3H] 8-OH-DPAT (0.3 nM) with 5-HT1A receptor in human HEK-293 cell was tested by scintillation proximity assay of membrane.

Sequence of human 5-HT1A receptor (P08908 whole entry): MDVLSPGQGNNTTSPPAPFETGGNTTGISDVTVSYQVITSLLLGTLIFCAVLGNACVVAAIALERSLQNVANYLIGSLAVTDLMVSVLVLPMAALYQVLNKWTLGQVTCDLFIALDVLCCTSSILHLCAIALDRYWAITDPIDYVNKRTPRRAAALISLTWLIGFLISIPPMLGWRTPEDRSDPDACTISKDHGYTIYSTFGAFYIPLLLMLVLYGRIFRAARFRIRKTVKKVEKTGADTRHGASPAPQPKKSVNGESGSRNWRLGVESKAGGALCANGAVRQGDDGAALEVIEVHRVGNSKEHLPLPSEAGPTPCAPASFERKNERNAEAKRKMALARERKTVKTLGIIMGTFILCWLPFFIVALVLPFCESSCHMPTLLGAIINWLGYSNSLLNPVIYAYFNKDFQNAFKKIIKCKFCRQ
Sequence of serotonin transporter in rat synaptosome (P31652 whole entry): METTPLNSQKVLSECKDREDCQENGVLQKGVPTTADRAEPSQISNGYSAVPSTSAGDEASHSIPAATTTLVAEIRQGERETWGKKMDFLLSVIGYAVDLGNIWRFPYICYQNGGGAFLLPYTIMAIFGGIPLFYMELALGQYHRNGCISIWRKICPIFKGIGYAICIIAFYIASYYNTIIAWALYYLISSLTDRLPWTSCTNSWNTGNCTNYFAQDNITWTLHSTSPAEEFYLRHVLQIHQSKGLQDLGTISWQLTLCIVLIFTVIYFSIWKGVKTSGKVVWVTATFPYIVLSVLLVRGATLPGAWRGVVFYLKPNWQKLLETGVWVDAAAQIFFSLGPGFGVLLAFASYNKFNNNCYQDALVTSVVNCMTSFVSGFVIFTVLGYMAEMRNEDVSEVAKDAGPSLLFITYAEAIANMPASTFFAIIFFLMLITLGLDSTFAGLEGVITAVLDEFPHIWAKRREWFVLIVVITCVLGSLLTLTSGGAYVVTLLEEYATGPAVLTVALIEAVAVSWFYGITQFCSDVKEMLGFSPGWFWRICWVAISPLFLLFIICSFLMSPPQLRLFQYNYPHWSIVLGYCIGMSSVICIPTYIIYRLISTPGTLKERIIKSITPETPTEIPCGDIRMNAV

Row | Compound | IC50 [1] [nM] | Ki (human 5-HT1A receptor) [nM]
1 | O=c1ccccn1-c1ccc(N2CCN(CCCCc3c[nH]c4ccc(F)cc34)CC2)cc1 [Example 10, 1-(4-(4-(4-(5-fluoro-1H-indol-3-yl)butyl)piperazin-1-yl)phenyl)pyridin-2(1H)-one] | 1.6 | 0.19
2 | N#Cc1ccc2[nH]cc(CCCCN3CCN(c4ccc(-n5ccc6ncccc6c5=O)cc4)CC3)c2c1 [Example 31, 3-(4-(4-(4-(5-oxo-1,6-naphthyridin-6(5H)-yl)phenyl)piperazin-1-yl)butyl)-1H-indole-5-carbonitrile] | 0.23 | 0.5
3 | Cc1ccn(-c2ccc(N3CCN(CCCCCc4c[nH]c5ccc(C#N)cc45)CC3)cc2)c(=O)c1 [Example 20, 3-(5-(4-(4-(4-methyl-2-oxopyridin-1(2H)-yl)phenyl)piperazin-1-yl)pentyl)-1H-indole-5-carbonitrile] | 3.6 | 4.7
4 | N#Cc1ccc2[nH]cc(CCCN3CCN(c4ccc(N5CCCCC5=O)cc4)CC3)c2c1 [Example 4, 3-(3-(4-(4-(2-oxopiperidin-1-yl)phenyl)piperazin-1-yl)propyl)-1H-indole-5-carbonitrile] | 8.5 | 1.2
5 | N#Cc1ccc2[nH]cc(CCN3CCN(c4ccc(-n5ccccc5=O)cc4)CC3)c2c1 [Example 13, 3-(2-(4-(4-(2-oxopyridin-1(2H)-yl)phenyl)piperazin-1-yl)ethyl)-1H-indole-5-carbonitrile] | 2.6 | 54
6 | N#Cc1ccc2[nH]cc(CCCCN3CCN(c4ccc(-n5ccc6ccccc6c5=O)cc4)CC3)c2c1 [Example 29, 3-(4-(4-(4-(1-oxoisoquinolin-2(1H)-yl)phenyl)piperazin-1-yl)butyl)-1H-indole-5-carbonitrile] | 10 | –
7 | N#Cc1ccc2[nH]cc(CCCCN3CCN(c4ccc(-n5ccc6occc6c5=O)cc4)CC3)c2c1 [Example 33, 3-(4-(4-(4-(4-oxofuro[3,2-c]pyridin-5 (4H)-yl)phenyl)piperazin-1-yl)butyl)-1H-indole-5-carbonitrile] | 0.53 | 0.14
8 | Cc1ccn(-c2ccc(N3CCN(CCc4c[nH]c5ccc(C#N)cc45)CC3)cc2)c(=O)c1 [Example 19, 3-(2-(4-(4-(4-methyl-2-oxopyridin-1(2H)-yl)phenyl)piperazin-1-yl)ethyl)-1H-indole-5-carbonitrile] | 2 | 33
9 | O=C1CCCCN1c1ccc(N2CCN(CCCc3c[nH]c4ccc(F)cc34)CC2)cc1 [Example 3, 1-(4-(4-(3-(5-fluoro-1H-indol-3-yl)propyl)piperazin-1-yl)phenyl)piperidin-2-one] | 4.2 | 3.2
10 | N#Cc1ccc2[nH]cc(CCCN3CCN(c4ccc(-n5ccc6ncccc6c5=O)cc4)CC3)c2c1 [Example 32, 3-(3-(4-(4-(5-oxo-1,6-naphthyridin-6(5H)-yl)phenyl)piperazin-1-yl)propyl)-1H-indole-5-carbonitrile] | 0.93 | 1.7
11 | N#Cc1ccc2[nH]cc(CCCN3CCN(c4ccc(-n5cc(F)cc(F)c5=O)cc4)CC3)c2c1 [Example 26, 3-(3-(4-(4-(3,5-difluoro-2-oxopyridin-1(2H)-yl)phenyl)piperazin-1-yl)propyl)-1H-indole-5-carbonitrile] | 1.3 | 0.31

The remaining lines, values ahead:

Row | IC50 [1] [nM] | Ki (human 5-HT1A receptor) [nM] | Compound
12 | 330 | – | N#Cc1ccc2[nH]cc(C(O)CCCN3CCN(c4ccc(-n5ccccc5=O)cc4)CC3)c2c1 (stereo not shown) [Example 15, 3-(1-hydroxy-4-(4-(4-(2-oxopyridin-1(2H)-yl)phenyl)piperazin-1-yl)butyl)-1H-indole-5-carbonitrile]
13 | 12 | – | COc1ccn(-c2ccc(N3CCN(CCc4c[nH]c5ccc(C#N)cc45)CC3)cc2)c(=O)c1 [Example 23, 3-(2-(4-(4-(4-methoxy-2-oxopyridin-1(2H)-yl)phenyl)piperazin-1-yl)ethyl)-1H-indole-5-carbonitrile]
14 | 8 | 0.23 | N#Cc1ccc2[nH]cc(CCCCN3CCN(c4ccc(-n5ccccc5=O)cc4)CC3)c2c1 [Example 9, 3-(4-(4-(4-(2-oxopyridin-1(2H)-yl)phenyl)piperazin-1-yl)butyl)-1H-indole-5-carbonitrile]
15 | 1.3 | 1.3 | N#Cc1ccc2[nH]cc(CCCCN3CCN(c4ccc(N5CCCNC5=O)cc4)CC3)c2c1 [Example 37, 3-(4-(4-(4-(2-oxotetrahydropyrimidin-1(2H)-yl)phenyl)piperazin-1-yl)butyl)-1H-indole-5-carbonitrile]
16 | 1.4 | 4.1 | N#Cc1ccc2[nH]cc(CCCCCN3CCN(c4ccc(-n5ccccc5=O)cc4)CC3)c2c1 [Example 14, 3-(5-(4-(4-(2-oxopyridin-1(2H)-yl)phenyl)piperazin-1-yl)pentyl)-1H-indole-5-carbonitrile]
17 | 1.8 | 3 | N#Cc1ccc2[nH]cc(CCCN3CCN(c4ccc(-n5ccncc5=O)cc4)CC3)c2c1 [Example 36, 3-(3-(4-(4-(2-oxopyrazin-1(2H)-yl)phenyl)piperazin-1-yl)propyl)-1H-indole-5-carbonitrile]
18 | 0.8 | 0.8 | N#Cc1ccc2[nH]cc(CCCCN3CCN(c4ccc(-n5ccncc5=O)cc4)CC3)c2c1 [Example 35, 3-(4-(4-(4-(2-oxopyrazin-1(2H)-yl)phenyl)piperazin-1-yl)butyl)-1H-indole-5-carbonitrile]
19 | 7.5 | 0.89 | Cc1ccn(-c2ccc(N3CCN(CCCc4c[nH]c5ccc(C#N)cc45)CC3)cc2)c(=O)c1 [Example 18, 3-(3-(4-(4-(4-methyl-2-oxopyridin-1(2H)-yl)phenyl)piperazin-1-yl)propyl)-1H-indole-5-carbonitrile]
20 | 10 | 3.2 | N#Cc1ccc2[nH]cc(CCCN3CCN(c4ccc(N5CCOCC5=O)cc4)CC3)c2c1 [Example 8, 3-(3-(4-(4-(3-oxomorpholino)phenyl)piperazin-1-yl)propyl)-1H-indole-5-carbonitrile]
21 | 4.2 | 0.1 | N#Cc1ccc2[nH]cc(CCCN3CCN(c4ccc(-n5ccc6occc6c5=O)cc4)CC3)c2c1 [Example 34, 3-(3-(4-(4-(4-oxofuro[3,2-c]pyridin-5 (4H)-yl)phenyl)piperazin-1-yl)propyl)-1H-indole-5-carbonitrile]
22 | 1.8 | 0.61 | COc1ccn(-c2ccc(N3CCN(CCCc4c[nH]c5ccc(C#N)cc45)CC3)cc2)c(=O)c1 [Example 22, 3-(3-(4-(4-(4-methoxy-2-oxopyridin-1(2H)-yl)phenyl)piperazin-1-yl)propyl)-1H-indole-5-carbonitrile]
23 | 6.3 | 3.1 | O=C1COCCN1c1ccc(N2CCN(CCCCc3c[nH]c4ccc(F)cc34)CC2)cc1 [Example 5, 4-(4-(4-(4-(5-fluoro-1H-indol-3-yl)butyl)piperazin-1-yl)phenyl)morpholin-3-one]
24 | 170 | – | N#Cc1ccc2[nH]cc(C(O)CCN3CCN(c4ccc(-n5ccccc5=O)cc4)CC3)c2c1 (stereo not shown) [Example 16, 3-(1-hydroxy-3-(4-(4-(2-oxopyridin-1(2H)-yl)phenyl)piperazin-1-yl)propyl)-1H-indole-5-carbonitrile]
25 | 7.3 | 6.4 | O=C1COCCN1c1ccc(N2CCN(CCCc3c[nH]c4ccc(F)cc34)CC2)cc1 [Example 7, 4-(4-(4-(3-(5-fluoro-1H-indol-3-yl)propyl)piperazin-1-yl)phenyl)morpholin-3-one]
26 | 1.8 | 1.9 | N#Cc1ccc2[nH]cc(CCCCN3CCN(c4ccc(N5CCCCC5=O)cc4)CC3)c2c1 [Example 2, 3-(4-(4-(4-(2-oxopiperidin-1-yl)phenyl)piperazin-1-yl)butyl)-1H-indole-5-carbonitrile]
27 | 1.4 | 1.9 | N#Cc1ccc2[nH]cc(CCCN3CCN(c4ccc(N5CCCNC5=O)cc4)CC3)c2c1 [Example 38, 3-(3-(4-(4-(2-oxotetrahydropyrimidin-1(2H)-yl)phenyl)piperazin-1-yl)propyl)-1H-indole-5-carbonitrile]
28 | 2.2 | 2.1 | N#Cc1ccc2[nH]cc(CCCCN3CCN(c4ccc(N5CCOCC5=O)cc4)CC3)c2c1 [Example 6, 3-(4-(4-(4-(3-oxomorpholino)phenyl)piperazin-1-yl)butyl)-1H-indole-5-carbonitrile]
